Laboratory results from patent US20200016159A1, “N3-CYCLICALLY SUBSTITUTED THIENOURACILS AND USE THEREOF” (Bayer Aktiengesellschaft, priority 2016, published 2020).

Molecular target: T1, human adenosine A2b receptor (Homo sapiens, UniProt P29275)
T1 sequence (P29275 1-332): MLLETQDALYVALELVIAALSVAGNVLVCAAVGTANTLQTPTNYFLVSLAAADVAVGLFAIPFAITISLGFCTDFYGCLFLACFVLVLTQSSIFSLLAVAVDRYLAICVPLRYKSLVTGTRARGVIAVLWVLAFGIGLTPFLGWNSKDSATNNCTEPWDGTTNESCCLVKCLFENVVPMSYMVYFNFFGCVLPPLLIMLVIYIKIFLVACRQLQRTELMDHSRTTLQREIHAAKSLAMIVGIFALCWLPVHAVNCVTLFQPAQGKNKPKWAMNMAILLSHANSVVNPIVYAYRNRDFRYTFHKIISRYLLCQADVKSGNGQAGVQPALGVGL
Test: Cellular in vitro reporter gene test for A2b receptor activity (antagonism of NECA)
Assay type: cell-based
Parameters: expressed in transfected cells; host or cells: CHO-K1 (Chinese hamster ovary) with CRE-luciferase reporter
Conditions: recombinant CHO-K1 cells, CRE-luciferase reporter, co-incubation with EC50 concentration of NECA, 3 hours
How it was run: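 CHO-K1 cells expressing recombinant human A2b receptor plus a CRE-driven firefly luciferase reporter. Compounds co-incubated with NECA at its same-day EC50 concentration; luminescence read 3 hours after NECA addition. IC50 values, sometimes means of several determinations rounded to two significant figures.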

SMILES | IC50
Cc1c(CN2CCNC2=O)sc2c1c(=O)n(C1CC1)c(=O)n2CC1CCCO1 (racemic) [Example 37, 3-Cyclopropyl-5-methyl-6-[(2-oxoimidazolidin-1-yl)methyl]-1-(tetrahydrofuran-2-ylmethyl)thieno[2,3-d]pyrimidine-2,4(1H,3H)-dione] | 35 nM
Cc1c(CN2CCNC2=O)sc2c1c(=O)n(C1CC1)c(=O)n2CCC(F)(F)F [Example 9, 3-Cyclopropyl-5-methyl-6-[(2-oxoimidazolidin-1-yl)methyl]-1-(3,3,3-trifluoropropyl)thieno[2,3-d]pyrimidine-2,4(1H,3H)-dione] | 1.5 nM
Cc1c(Cn2nc[nH]c2=O)sc2c1c(=O)n(C1(C)CC1)c(=O)n2CC1CC1(F)F (single isomer, unassigned) [Example 67, 1-[(2,2-Difluorocyclopropyl)methyl]-5-methyl-3-(1-methylcyclopropyl)-6-[(5-oxo-4,5-dihydro-1H-1,2,4-triazol-1-yl)methyl]thieno[2,3-d]pyrimidine-2,4(1H,3H)-dione] | 54 nM
CCCCn1c(=O)n(C2CC2)c(=O)c2c(C)c(CN3CCNC3=O)sc21 [Example 3, 1-Butyl-3-cyclopropyl-5-methyl-6-[(2-oxoimidazolidin-1-yl)methyl]thieno[2,3-d]pyrimidine-2,4(1H,3H)-dione] | 6.9 nM
COCCn1c(=O)n([C@H]2C[C@H](OC)C2)c(=O)c2c(C)c(CN3CCNC3=NC#N)sc21 [Example 150, [1-{[3-(trans-3-Methoxycyclobutyl)-1-(2-methoxyethyl)-5-methyl-2,4-dioxo-1,2,3,4-tetrahydrothieno[2,3-d]pyrimidin-6-yl]methyl}imidazolidin-2-ylidene]cyanamide] | 120 nM
COCCn1c(=O)n(C2(C)CC2)c(=O)c2c(C)c(CN3CCNC3=NC#N)sc21 [Example 71, [1-{[1-(2-Methoxyethyl)-5-methyl-3-(1-methylcyclopropyl)-2,4-dioxo-1,2,3,4-tetrahydrothieno[2,3-d]pyrimidin-6-yl]methyl}imidazolidine-2-ylidene]cyanamide] | 12 nM
Cc1c(CN2CCNC(=O)C2=O)sc2c1c(=O)n(C1CCC1)c(=O)n2CCC(F)(F)F [Example 113, 3-Cyclobutyl-6-[(2,3-dioxopiperazin-1-yl)methyl]-5-methyl-1-(3,3,3-trifluoropropyl)thieno[2,3-d]pyrimidine-2,4(1H,3H)-dione] | 2 nM
COCCn1c(=O)n(C2(C)CCC2)c(=O)c2c(C)c(CN3CCNC3=O)sc21 [Example 139, 1-(2-Methoxyethyl)-5-methyl-3-(1-methylcyclobutyl)-6-[(2-oxoimidazolidin-1-yl)methyl]thieno[2,3-d]pyrimidine-2,4(1H,3H)-dione] | 310 nM
Cc1c(CN2CCNC2=O)sc2c1c(=O)n(C1CC1C)c(=O)n2CCC(F)(F)F (racemic) [Example 93, 5-Methyl-3-(2-methylcyclopropyl)-6-[(2-oxoimidazolidin-1-yl)methyl]-1-(3,3,3-trifluoropropyl)thieno[2,3-d]pyrimidine-2,4(1H,3H)-dione] | 1.8 nM
COCCn1c(=O)n(C2CCCC2)c(=O)c2c(C)c(Cn3nc[nH]c3=O)sc21 [Example 193, 3-Cyclopentyl-1-(2-methoxyethyl)-5-methyl-6-[(5-oxo-4,5-dihydro-1H-1,2,4-triazol-1-yl)methyl]thieno[2,3-d]pyrimidine-2,4(1H,3H)-dione] | 230 nM
COCCn1c(=O)n(C2CC2)c(=O)c2c(C)c(CN3CCNC3=NC#N)sc21 [Example 25, [1-{[3-Cyclopropyl-1-(2-methoxyethyl)-5-methyl-2,4-dioxo-1,2,3,4-tetrahydrothieno[2,3-d]pyrimidin-6-yl]methyl}imidazolidin-2-ylidene]cyanamide] | 12 nM
COCCn1c(=O)n(C2CC2)c(=O)c2c(C)c(CN3CCNC3=O)sc21 [Example 24, 3-Cyclopropyl-1-(2-methoxyethyl)-5-methyl-6-[(2-oxoimidazolidin-1-yl)methyl]thieno[2,3-d]pyrimidine-2,4(1H,3H)-dione] | 29 nM
Cc1c(Cn2nc[nH]c2=O)sc2c1c(=O)n(C1(C)CC1)c(=O)n2C [Example 53, 1,5-Dimethyl-3-(1-methylcyclopropyl)-6-[(5-oxo-4,5-dihydro-1H-1,2,4-triazol-1-yl)methyl]thieno[2,3-d]pyrimidine-2,4(1H,3H)-dione] | 120 nM
Cc1c(CN2CCNC2=O)sc2c1c(=O)n(C1(C)CC1)c(=O)n2C[C@H]1CCCO1 [Example 81, 5-Methyl-3-(1-methylcyclopropyl)-6-[(2-oxoimidazolidin-1-yl)methyl]-1-[(2R)-tetrahydrofuran-2-ylmethyl]thieno[2,3-d]pyrimidine-2,4(1H,3H)-dione] | 39 nM
COCCn1c(=O)n(C2CC2)c(=O)c2c(C)c(Cn3cc[nH]c3=O)sc21 [Example 28, 3-Cyclopropyl-1-(2-methoxyethyl)-5-methyl-6-[(2-oxo-2,3-dihydro-1H-imidazol-1-yl)methyl]thieno[2,3-d]pyrimidine-2,4(1H,3H)-dione] | 19 nM
Cc1c(Cn2nc[nH]c2=O)sc2c1c(=O)n(C1CC1)c(=O)n2CCOC(C)C [Example 34, 3-Cyclopropyl-1-(2-isopropoxyethyl)-5-methyl-6-[(5-oxo-4,5-dihydro-H-1,2,4-triazol-1-yl)methyl]thieno[2,3-d]pyrimidine-2,4(1H,3H)-dione] | 500 nM
Cc1c(CN2CCNC(=O)C2=O)sc2c1c(=O)n(C1CC1)c(=O)n2CCC(F)(F)F [Example 13, 3-Cyclopropyl-6-[(2,3-dioxopiperazin-1-yl)methyl]-5-methyl-1-(3,3,3-trifluoropropyl)thieno[2,3-d]pyrimidine-2,4(1H,3H)-dione] | 4 nM

Second part, the molecule after the results:

IC50 | SMILES
4.4 nM | Cc1c(CN2CCNC2=O)sc2c1c(=O)n(C1CC1C)c(=O)n2CC(F)(F)F (racemic) [Example 237, 5-Methyl-3-(2-methylcyclopropyl)-6-[(2-oxoimidazolidin-1-yl)methyl]-1-(2,2,2-trifluoroethyl)thieno[2,3-d]pyrimidine-2,4(1H,3H)-dione]
180 nM | CCn1c(=O)n(C2CC2)c(=O)c2c(C)c(Cn3nc[nH]c3=O)sc21 [Example 194, 3-Cyclopropyl-1-ethyl-5-methyl-6-[(5-oxo-4,5-dihydro-1H-1,2,4-triazol-1-yl)methyl]thieno[2,3-d]pyrimidine-2,4(1H,3H)-dione]
67 nM | Cc1c(Cn2[nH]ccc2=O)sc2c1c(=O)n(C1CC1C)c(=O)n2CCOC(F)(F)F (racemic) [Example 273, 5-Methyl-3-(2-methylcyclopropyl)-6-[(5-oxo-2,5-dihydro-1H-pyrazol-1-yl)methyl]-1-[2-(trifluoromethoxy)ethyl]thieno[2,3-d]pyrimidine-2,4(1H,3H)-dione]
7.1 nM | Cc1c(CN2CCNC2=O)sc2c1c(=O)n(C1CC1C)c(=O)n2CCC(F)(F)F (single isomer, unassigned) [Example 241, 5-Methyl-3-(2-methylcyclopropyl)-6-[(2-oxoimidazolidin-1-yl)methyl]-1-(3,3,3-trifluoropropyl)thieno[2,3-d]pyrimidine-2,4(1H,3H)-dione]
6.7 nM | Cc1c(CN2CCNC2=O)sc2c1c(=O)n(C1CC1C)c(=O)n2CCC(F)(F)C(F)F (racemic) [Example 245, 5-Methyl-3-(2-methylcyclopropyl)-6-[(2-oxoimidazolidin-1-yl)methyl]-1-(3,3,4,4-tetrafluorobutyl)thieno[2,3-d]pyrimidine-2,4(1H,3H)-dione]
1.9 nM | CCn1c(=O)n(C2CC2C)c(=O)c2c(C)c(CN3CCNC3=O)sc21 (single isomer, unassigned) [Example 226, 1-Ethyl-5-methyl-3-(2-methylcyclopropyl)-6-[(2-oxoimidazolidin-1-yl)methyl]thieno[2,3-d]pyrimidine-2,4(1H,3H)-dione]
15 nM | Cc1c(Cn2[nH]ccc2=O)sc2c1c(=O)n(C1CCC1)c(=O)n2CCC(F)(F)F [Example 312, 3-Cyclobutyl-5-methyl-6-[(5-oxo-2,5-dihydro-1H-pyrazol-1-yl)methyl]-1-(3,3,3-trifluoropropyl)thieno[2,3-d]pyrimidine-2,4(1H,3H)-dione]
210 nM | Cc1c(Cn2nc[nH]c2=O)sc2c1c(=O)n(C1CC1)c(=O)n2CCF [Example 196, 3-Cyclopropyl-1-(2-fluoroethyl)-5-methyl-6-[(5-oxo-4,5-dihydro-1H-1,2,4-triazol-1-yl)methyl]thieno[2,3-d]pyrimidine-2,4(1H,3H)-dione]
2.3 nM | Cc1c(CN2CCNC2=O)sc2c1c(=O)n(C1CC1C)c(=O)n2CCF (racemic) [Example 231, 1-(2-Fluoroethyl)-5-methyl-3-(2-methylcyclopropyl)-6-[(2-oxoimidazolidin-1-yl)methyl]thieno[2,3-d]pyrimidine-2,4(1H,3H)-dione]
5.5 nM | Cc1c(Cn2nc[nH]c2=O)sc2c1c(=O)n([C@H]1C[C@@H]1C)c(=O)n2CCCC(F)(F)F [Example 324, 5-Methyl-3-[(1S,2S)-2-methylcyclopropyl]-6-[(5-oxo-4,5-dihydro-1H-1,2,4-triazol-1-yl)methyl]-1-(4,4,4-trifluorobutyl)thieno[2,3-d]pyrimidine-2,4(1H, 3H)-dione]
3.2 nM | Cc1c(Cn2cc[nH]c2=O)sc2c1c(=O)n(C1(C)CC1)c(=O)n2CC1CC(F)(F)C1 [Example 216]
